From ChEMBL document CHEMBL5365539, “Selective modifications of lactose and N-acetyllactosamine with sulfate and aromatic bulky groups unveil unique structural insights in galectin-1-ligand recognition” (Bioorg Med Chem, 2023)

Tests used:
Galectin-1 [1] = biological target: T1, Galectin-1 (Homo sapiens, UniProt P09382); assay: Binding affinity to human recombinant Gal-1 assessed as association constant by ITC analysis
Galectin-1 [2] = biological target: T1, Galectin-1; assay: Binding affinity to human recombinant Gal-1 assessed as change in entropy by ITC analysis
Galectin-1 [3] = biological target: T1, Galectin-1; assay: Binding affinity to human recombinant Gal-1 assessed as change in enthalpy by ITC analysis
Galectin-1 [4] = biological target: T1, Galectin-1; assay: Potency index, ratio of test compound IC50 to (2S,3R,4S,5R,6R)-2-(((2R,3S,4R,5R,6R)-4,5 dihydroxy-2-(hydroxymethyl)-6 methoxytetrahydro-2H-pyran-3-yl)oxy)-6(hydroxymethyl)tetrahydro-2H-pyran-3,4,5-triol IC50 for inhibition of asialofetuin binding to human recombinant Gal-1 transfected in Escherichia coli BL21 (DE3) incubated for 2 hrs by competitive solid-phase assay
Galectin-1 [5] = biological target: T1, Galectin-1; assay: Inhibition of asialofetuin binding to human recombinant Gal-1 transfected in Escherichia coli BL21 (DE3) incubated for 2 hrs by competitive solid-phase assay
Galectin-1 [6] = biological target: T1, Galectin-1; assay: Binding affinity to human recombinant Gal-1 assessed as dissociation constant by ITC analysis
Galectin-1 [7] = biological target: T1, Galectin-1; assay: Binding affinity to human recombinant Gal-1 assessed as gibbs free energy change by ITC analysis

T1 sequence (P09382 whole entry): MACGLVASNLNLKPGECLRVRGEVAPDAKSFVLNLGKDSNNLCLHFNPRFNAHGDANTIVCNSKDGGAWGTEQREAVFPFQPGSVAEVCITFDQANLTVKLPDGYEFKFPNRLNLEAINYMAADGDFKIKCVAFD

Structure (SMILES): OC[C@H]1O[C@@H](O[C@H]2[C@H](O)[C@@H](O)C(O)O[C@@H]2CO)[C@H](O)[C@@H](O)[C@H]1O (stereo not given in full)
- Ka (Galectin-1 [1]): 3.2 10^3/M
- deltaS (Galectin-1 [2]): -28 J/mol.K
- deltaH (Galectin-1 [3]): -6.79 kcal/mol

Structure (SMILES): C#CCO[C@@H]1O[C@H](CO)[C@@H](O[C@@H]2O[C@H](CO)[C@H](O)[C@H](OS(=O)(=O)O)[C@H]2O)[C@H](O)[C@H]1NC(C)=O
- Ratio IC50 (Galectin-1 [4]): 0.65
- IC50 (Galectin-1 [5]): 4.8 mM

Structure (SMILES): COc1cc(/C=C/C(=O)O)ccc1O[C@@H]1O[C@H](CO)[C@@H](O[C@@H]2O[C@H](CO)[C@H](O)[C@H](O)[C@H]2O)[C@H](O)[C@H]1O
- Ratio IC50 (Galectin-1 [4]): 0.65
- IC50 (Galectin-1 [5]): 4.8 mM

Structure (SMILES): CC(=O)N[C@H]1C(O)O[C@H](CO)[C@@H](O[C@@H]2O[C@H](CO)[C@H](O)[C@H](O)[C@H]2O)[C@@H]1O (stereo not given in full)
- Ratio IC50 (Galectin-1 [4]): 1.02
- IC50 (Galectin-1 [5]): 7.5 mM

Structure (SMILES): CC(=O)N[C@H]1[C@H](Oc2ccc([N+](=O)[O-])cc2)O[C@H](CO)[C@@H](O[C@@H]2O[C@H](CO)[C@H](O)[C@H](O)[C@H]2O)[C@@H]1O
- Ratio IC50 (Galectin-1 [4]): 0.78
- IC50 (Galectin-1 [5]): 5.7 mM

Structure (SMILES): C#CCO[C@@H]1O[C@H](CO)[C@@H](O[C@@H]2O[C@H](CO)[C@H](O)[C@H](OCC(=O)O)[C@H]2O)[C@H](O)[C@H]1NC(C)=O
- Ratio IC50 (Galectin-1 [4]): 0.99
- IC50 (Galectin-1 [5]): 7.3 mM

Structure (SMILES): COc1cc(C=O)ccc1O[C@@H]1O[C@H](CO)[C@@H](O[C@@H]2O[C@H](CO)[C@H](O)[C@H](OS(=O)(=O)O)[C@H]2O)[C@H](O)[C@H]1O
- Ratio IC50 (Galectin-1 [4]): 0.82
- IC50 (Galectin-1 [5]): 6.1 mM

Structure (SMILES): CO[C@@H]1O[C@H](CO)[C@@H](O[C@@H]2O[C@H](CO)[C@H](O)[C@H](O)[C@H]2O)[C@H](O)[C@H]1O
- IC50 (Galectin-1 [5]): 7.4 mM

Structure (SMILES): C#CCO[C@@H]1O[C@H](CO)[C@@H](O[C@@H]2O[C@H](CO)[C@H](O)[C@H](O[C@]3(C(=O)O)C[C@H](O)[C@@H](NC(C)=O)[C@H]([C@@H](O)[C@H](O)CO)O3)[C@H]2O)[C@H](O)[C@H]1NC(C)=O
- Ratio IC50 (Galectin-1 [4]): 1.31
- IC50 (Galectin-1 [5]): 9.7 mM

Structure (SMILES): CC(=O)N[C@H]1[C@H](Oc2ccc([N+](=O)[O-])cc2)O[C@H](CO)[C@@H](O[C@@H]2O[C@H](CO)[C@H](O)[C@H](OS(=O)(=O)O)[C@H]2O)[C@@H]1O
- Ratio IC50 (Galectin-1 [4]): 0.83
- IC50 (Galectin-1 [5]): 6.1 mM

Structure (SMILES): C#CCO[C@@H]1O[C@H](CO)[C@@H](O[C@@H]2O[C@H](CO)[C@H](O)[C@H](O)[C@H]2O)[C@H](O)[C@H]1NC(C)=O
- Ratio IC50 (Galectin-1 [4]): 1.45
- IC50 (Galectin-1 [5]): 10.7 mM

Structure (SMILES): COc1cc(C(=O)O)ccc1O[C@@H]1O[C@H](CO)[C@@H](O[C@@H]2O[C@H](CO)[C@H](O)[C@H](OS(=O)(=O)O)[C@H]2O)[C@H](O)[C@H]1O
- Ka (Galectin-1 [1]): 3.5 10^3/M
- Kd (Galectin-1 [6]): 0.284 mM
- deltaS (Galectin-1 [2]): -6.2 J/mol.K
- deltaH (Galectin-1 [3]): -5.28 kcal/mol
- Ratio IC50 (Galectin-1 [4]): 0.53
- deltaG (Galectin-1 [7]): -4.83 kcal/mol
- IC50 (Galectin-1 [5]): 3.9 mM

Structure (SMILES): COc1cc(CO)ccc1O[C@@H]1O[C@H](CO)[C@@H](O[C@@H]2O[C@H](CO)[C@H](O)[C@H](O)[C@H]2O)[C@H](O)[C@H]1O
- Ratio IC50 (Galectin-1 [4]): 1.46
- IC50 (Galectin-1 [5]): 10.8 mM

Structure (SMILES): COc1cc(CCC(=O)O)ccc1O[C@@H]1O[C@H](CO)[C@@H](O[C@@H]2O[C@H](CO)[C@H](O)[C@H](O)[C@H]2O)[C@H](O)[C@H]1O
- Ratio IC50 (Galectin-1 [4]): 0.56
- IC50 (Galectin-1 [5]): 4.1 mM

Structure (SMILES): O=[N+]([O-])c1ccc(O[C@@H]2O[C@H](CO)[C@@H](O[C@@H]3O[C@H](CO)[C@H](O)[C@H](O)[C@H]3O)[C@H](O)[C@H]2O)cc1
- Ratio IC50 (Galectin-1 [4]): 0.89
- IC50 (Galectin-1 [5]): 6.6 mM

Structure (SMILES): C#CCO[C@@H]1O[C@H](CO)[C@@H](O[C@@H]2O[C@H](CO)[C@H](O)[C@H](O)[C@H]2O)[C@H](O)[C@H]1O
- Ratio IC50 (Galectin-1 [4]): 0.83
- IC50 (Galectin-1 [5]): 6.1 mM

Structure (SMILES): O=[N+]([O-])c1ccc(O[C@@H]2O[C@H](CO)[C@@H](O[C@@H]3O[C@H](CO)[C@H](O)[C@H](OS(=O)(=O)O)[C@H]3O)[C@H](O)[C@H]2O)cc1
- Ratio IC50 (Galectin-1 [4]): 0.79
- IC50 (Galectin-1 [5]): 5.9 mM

Structure (SMILES): COc1cc(C(=O)OC(C)(C)C)ccc1O[C@@H]1O[C@H](CO)[C@@H](O[C@@H]2O[C@H](CO)[C@H](O)[C@H](OS(=O)(=O)O)[C@H]2O)[C@H](O)[C@H]1O
- Ka (Galectin-1 [1]): 8.6 10^3/M
- Kd (Galectin-1 [6]): 0.117 mM
- deltaS (Galectin-1 [2]): -21.3 J/mol.K
- deltaH (Galectin-1 [3]): -6.93 kcal/mol
- Ratio IC50 (Galectin-1 [4]): 0.43
- deltaG (Galectin-1 [7]): -5.38 kcal/mol
- IC50 (Galectin-1 [5]): 3.2 mM

Structure (SMILES): COC(=O)c1ccc(O[C@@H]2O[C@H](CO)[C@@H](O[C@@H]3O[C@H](CO)[C@H](O)[C@H](O)[C@H]3O)[C@H](O)[C@H]2O)c(OC)c1
- Ratio IC50 (Galectin-1 [4]): 1.02
- IC50 (Galectin-1 [5]): 7.5 mM

Structure (SMILES): COc1cc(C(=O)OC(C)(C)C)ccc1O[C@@H]1O[C@H](CO)[C@@H](O[C@@H]2O[C@H](CO)[C@H](O)[C@H](O)[C@H]2O)[C@H](O)[C@H]1O
- Ka (Galectin-1 [1]): 4.9 10^3/M
- Kd (Galectin-1 [6]): 0.206 mM
- deltaS (Galectin-1 [2]): -23.1 J/mol.K
- deltaH (Galectin-1 [3]): -6.67 kcal/mol
- Ratio IC50 (Galectin-1 [4]): 0.48
- deltaG (Galectin-1 [7]): -5.02 kcal/mol
- IC50 (Galectin-1 [5]): 3.6 mM
